{"source": "patent US11259522B2", "about": "“Control of resistant pests” (priority 2017, dated 2022)", "key": {"[1]": {"test_system": "Rhipicephalus microplus larvae, multi-resistant Tiaro reference strain", "test": "Larval packet test (LPT), cattle tick larvae, multi-resistant strain", "format": "in vivo", "details": "for LC50 (ppm) / LC99 (ppm): Tiaro, Probit analysis", "description": "(§1) Filter papers (75 mm×85 mm Whatman® No. 541), with grid patterns, were impregnated on ½ of the paper with 225 μL of each solution using a micro-pipette and immediately folded in half, enveloped in polyethylene plastic and sealed with 3 bulldog clips. The impregnated papers were kept at room temperature on aluminium trays for a minimum of 60 minutes to allow for dispersal across the grid pattern of the paper prior to aliquoting of larvae. The packets were prepared in duplicate for each concentration, including the negative control.\n(§2) Aliquots of approximately 100 larvae were placed into each packet using plastic disposable forceps and the packets resealed and incubated and 27° C. and 85% relative humidity (RH).\n(§3) After 24 hours, the larval packets were opened and the numbers of dead and live larvae were counted under a magnification lamp. Percentage mortality was calculated and, where applicable, corrected using Abbott's Formula (Abbott, 1925, J. Economic Entomology, 18:256-257): […]\n(§4) LC50 and LC99 values were determined by Probit mortality vs log concentration analysis. Probit values were derived from “Transformation of Percentages to Probit's Tables” published by Fisher R. A. and Yates F. (1938).\n(§5) The LPT Assay of Example 1 was repeated using a narrow range of concentrations, 1 in 2 series, of flavesone to determine LC50 and LC99 values against the susceptible NRFS and the multi-resistant Tiaro reference strain.\nThe Tiaro strain of R. microplus comprises of about 30% fluazuron, 60.6% cypermethrin (SP), 57.6% flumethrin (SP), 16.2% amitraz (amidine), 11.3% DDT, 9.3% chlorpyrifos (OP) and 2.4% dieldrin resistance [2014 acaricide resistance profiling].\nThe stock solution of flavesone (100,000 ppm) was diluted 1 in 10 with olive oil (1 mL to 9 mL diluent) to give 10,000 ppm, which was then further diluted 1 in 2 in series (5 mL to 5 mL diluent) to give 5,000 ppm, 2,500 ppm, 1,250 ppm, 625 ppm, 312.5 ppm and 156.25 ppm concentrations.\nFor the preparation of the positive control, cypermethrin, a stock solution of a concentration of 10,000 ppm was prepared in 2:1 trichloroethylene (TCE)/olive oil as the solvent ([…] cypermethrin, 94.8% purity, to 10 mL solvent) and then further diluted 1 in 2 in series (5 mL to 5 mL solvent) to also give 5,000 ppm, 2,500 ppm, 1,250 ppm, 625 ppm, 312.5 ppm and 156.25 ppm.\nThe flavesone papers were prepared as in Example 1.\nThe cypermethrin papers were impregnated with 670 μL of each solution using a micro-pipette and hung on a rack in a fume-hood to allow papers to dry (evaporation of TCE) for a minimum of 60 minutes. The papers were then folded in half and sealed with three bulldog clips, placed on aluminium trays prior to aliquoting the larvae. All packets were prepared in duplicate.\nA dose-response relationship was determined at 24 hours contact exposure.\nConcentrations of 1,250 ppm, 625 ppm and 312.5 ppm flavesone concentrations prepared for Example 3 were used on the same day of preparation. Duplicate papers were prepared for both the NRFS and Tiaro strains (including negative controls) as described in Example 2.\nMortality was assessed at 48 hours and LC50 and LC99 values were determined by Probit mortality vs log concentration analysis."}, "[2]": {"test_system": "Rhipicephalus microplus larvae, susceptible non-resistant field strain (NRFS)", "test": "Larval packet test (LPT), cattle tick larvae, susceptible strain", "format": "in vivo", "details": "for LC50 (ppm) / LC99 (ppm): NRFS, Probit analysis; for mortality at 10000 ppm: 10,000 ppm; for mortality at 2.5 ppm: 2.500 ppm; for mortality at 5000 ppm: 5,000 ppm", "description": "The larval packet test (LPT) is a modification of that first described by Stone and Haydock (1962, Bull. Entomol. Res., 563-578, http://dx.doi.org/10.1017/5000748530004832X) for evaluation of field resistance in cattle tick (Rhipicephalus microplus) larvae.\nThe first LPT assay was conducted to identify the potential range of flavesone acaricidal activity against larvae of a susceptible non-resistant field strain (NRFS) of R. microplus as a reference strain using a wide range of concentrations (1 in 10 in series).\nThe test compound, flavesone, 6-isobutyryl-2,2,4,4-tetramethylcyclohexane-1,3,5-trione, 96.7%, was used. As its volatility/evaporative properties were unknown, the LPT method was modified to incorporate the use of suitably-sized polyethylene plastic sheets to envelop the larval packets, minimizing exposure of the test active to the atmosphere.\nIn addition, the use of the solvent trichloroethylene (TCE) was removed to avoid the time required for evaporation in the preparation of test papers. The test solutions were prepared in olive oil only at the diluent and the papers immediately enveloped in the plastic sheets and sealed with bulldog clips to minimize evaporation.\nA stock solution with a concentration of 100,000 ppm (10%) flavesone was prepared in olive oil as the diluent (1.035 mL flavesone (96.7%) to 8.965 mL olive oil) and then further diluted 1 in 10 in series to also give 10,000 ppm, 1,000 ppm, 100 ppm, 10 ppm and 1 ppm concentration. The negative control was olive oil only. No positive control was included in this experiment. Due to the viscosity of the olive oil, all solutions were prepared using reverse pipetting technique.\nas §1\nAn 8 dram vial containing approximately 20,000 hatched 7-21 day old NRFS larvae (about 1 g eggs) was opened and set up on a moated tray with a small amount of detergenated water, about 15 to 30 minute before use. Only larvae that migrated to the top of the vial were used in the assay.\nas §2, §3, §4, §5\nThe stock solution of flavesone (100,000 ppm) was diluted 1 in 10 with olive oil (1 mL to 9 mL diluent) to give 10,000 ppm, which was then further diluted 1 in 2 in series (5 mL to 5 mL diluent) to give 5,000 ppm, 2,500 ppm, 1,250 ppm, 625 ppm, 312.5 ppm and 156.25 ppm concentrations. […]"}, "[3]": {"details": "Rhipicephalus microplus, Example 2, 24 hours"}, "[4]": {"details": "Rhipicephalus microplus, Example 4, 48 hours"}, "[5]": {"details": "Rhipicephalus microplus, 24 h, Example 2"}, "[6]": {"details": "Rhipicephalus microplus, 24 h, Example 3"}, "[7]": {"details": "Rhipicephalus microplus, 48 h, Example 4"}}, "data": [{"molecule": "CC(C)C(=O)C1C(=O)C(C)(C)C(=O)C(C)(C)C1=O", "note": "[Flavesone, 1-isobutyroyl-3,3,5,5-tetramethylcyclohexane-2,4,6-trione]", "values": [{"measurement": "cross-resistance, comparing LC50 and LC99 data between NRFS and Tiaro strains", "setting": "[1]; Example 2, 24 hours", "value": "no evidence of cross-resistance"}, {"measurement": "LC50 (ppm)", "setting": "[1]; Example 2, 24 hours", "value": 647, "unit": "ppm"}, {"measurement": "LC99 (ppm)", "setting": "[1]; Example 2, 24 hours", "value": 1039, "unit": "ppm"}, {"measurement": "LC50 (ppm)", "setting": "[1]; Example 4, 48 hours", "value": 521, "unit": "ppm"}, {"measurement": "LC99 (ppm)", "setting": "[1]; Example 4, 48 hours", "value": 887, "unit": "ppm"}, {"measurement": "mortality at 2.5 ppm", "setting": "[1]; Rhipicephalus microplus, Example 2, 2.500 ppm, 24 hours", "value": 100, "unit": "%"}, {"measurement": "mortality at 156.25 ppm", "setting": "[1]; Rhipicephalus microplus, Example 2, 156.25 ppm, 24 hours", "value": 0, "unit": "%"}, {"measurement": "mortality at 312.5 ppm", "setting": "[1]; [3]", "value": 0.13, "unit": "%"}, {"measurement": "mortality at 625 ppm", "setting": "[1]; [3]", "value": 12.8, "unit": "%"}, {"measurement": "mortality at 1250 ppm", "setting": "[1]; Rhipicephalus microplus, Example 2, 1,250 ppm, 24 hours", "value": 100, "unit": "%"}, {"measurement": "mortality at 5000 ppm", "setting": "[1]; Rhipicephalus microplus, Example 2, 5,000 ppm, 24 hours", "value": 100, "unit": "%"}, {"measurement": "mortality at 10000 ppm", "setting": "[1]; Rhipicephalus microplus, Example 2, 10,000 ppm, 24 hours", "value": 100, "unit": "%"}, {"measurement": "mortality at 312.5 ppm", "setting": "[1]; [4]", "value": 0.97, "unit": "%"}, {"measurement": "mortality at 625 ppm", "setting": "[1]; [4]", "value": 84.1, "unit": "%"}, {"measurement": "mortality at 1250 ppm", "setting": "[1]; Rhipicephalus microplus, Example 4, 1250 ppm, 48 hours", "value": 100, "unit": "%"}, {"measurement": "LC50 (ppm)", "setting": "[2]; Example 1, 24 hours", "value": 171, "unit": "ppm"}, {"measurement": "LC99 (ppm)", "setting": "[2]; Example 1, 24 hours", "value": 3346, "unit": "ppm"}, {"measurement": "LC50 (ppm)", "setting": "[2]; Example 2, 24 hours", "value": 690, "unit": "ppm"}, {"measurement": "LC99 (ppm)", "setting": "[2]; Example 2, 24 hours", "value": 1109, "unit": "ppm"}, {"measurement": "LC50 (ppm)", "setting": "[2]; Example 3, 24 hours", "value": 610, "unit": "ppm"}, {"measurement": "LC99 (ppm)", "setting": "[2]; Example 3, 24 hours", "value": 1050, "unit": "ppm"}, {"measurement": "LC50 (ppm)", "setting": "[2]; Example 4, 48 hours", "value": 526, "unit": "ppm"}, {"measurement": "LC99 (ppm)", "setting": "[2]; Example 4, 48 hours", "value": 923, "unit": "ppm"}, {"measurement": "mortality at 1 ppm", "setting": "[2]; Rhipicephalus microplus, 24 h, Example 1, 1 ppm", "value": 0, "unit": "%"}, {"measurement": "mortality at 10 ppm", "setting": "[2]; Rhipicephalus microplus, 24 h, Example 1, 10 ppm", "value": 0.62, "unit": "%"}, {"measurement": "mortality at 100 ppm", "setting": "[2]; Rhipicephalus microplus, 24 h, Example 1, 100 ppm", "value": 1.82, "unit": "%"}, {"measurement": "mortality at 1000 ppm", "setting": "[2]; Rhipicephalus microplus, 24 h, Example 1, 1,000 ppm", "value": 97, "unit": "%"}, {"measurement": "mortality at 10000 ppm", "setting": "[2]; Rhipicephalus microplus, 24 h, Example 1", "value": 100, "unit": "%"}, {"measurement": "mortality at 100000 ppm", "setting": "[2]; Rhipicephalus microplus, 24 h, Example 1, 100,000 ppm", "value": 100, "unit": "%"}, {"measurement": "mortality at 2.5 ppm", "setting": "[2]; [5]", "value": 100, "unit": "%"}, {"measurement": "mortality at 156.25 ppm", "setting": "[2]; Rhipicephalus microplus, 24 h, Example 2, 156.25 ppm", "value": 0, "unit": "%"}, {"measurement": "mortality at 312.5 ppm", "setting": "[2]; [5]", "value": 0, "unit": "%"}, {"measurement": "mortality at 625 ppm", "setting": "[2]; [5]", "value": 11.8, "unit": "%"}, {"measurement": "mortality at 1250 ppm", "setting": "[2]; Rhipicephalus microplus, 24 h, Example 2, 1,250 ppm", "value": 100, "unit": "%"}, {"measurement": "mortality at 5000 ppm", "setting": "[2]; [5]", "value": 100, "unit": "%"}, {"measurement": "mortality at 10000 ppm", "setting": "[2]; [5]", "value": 100, "unit": "%"}, {"measurement": "mortality at 2.5 ppm", "setting": "[2]; [6]", "value": 100, "unit": "%"}, {"measurement": "mortality at 312.5 ppm", "setting": "[2]; [6]", "value": 1.28, "unit": "%"}, {"measurement": "mortality at 625 ppm", "setting": "[2]; [6]", "value": 11.8, "unit": "%"}, {"measurement": "mortality at 1250 ppm", "setting": "[2]; Rhipicephalus microplus, 24 h, Example 3, 1,250 ppm", "value": 100, "unit": "%"}, {"measurement": "mortality at 5000 ppm", "setting": "[2]; [6]", "value": 100, "unit": "%"}, {"measurement": "mortality at 312.5 ppm", "setting": "[2]; [7]", "value": 2.17, "unit": "%"}, {"measurement": "mortality at 625 ppm", "setting": "[2]; [7]", "value": 66.8, "unit": "%"}, {"measurement": "mortality at 1250 ppm", "setting": "[2]; Rhipicephalus microplus, 48 h, Example 4, 1250 ppm", "value": 100, "unit": "%"}]}]}
